Data as given in patent US20210290597A1, “METHOD OF TREATING A CONDITION ASSOCIATED WITH NEURODEGENERATION USING INHIBITORS OF OAT3” (Neuropore Therapies, Inc., priority 2018, published 2021).

Assays:
[1] = system: microtubule-associated protein 1A/1B-light chain 3 (LC3); experiment: LC3 immunolabeling, L61 ASYN transgenic mice, 1 month study; format: in vivo; details: 1, 5 or 10 mg/kg per day i.p.
Experimental: Multiple in vivo administration studies of Compound 1 were carried out in the Line 61 (L61) mThy1-alpha-synuclein transgenic mouse model of Parkinson's disease (PD). The mThy1-alpha-synuclein transgenic mouse model overexpresses wild-type human ASYN under the Thy-1 promoter (commonly referred to as Line 61 transgenic mice; Rockenstein et al., 2002). This transgenic mouse develops extensive accumulation of alpha-synuclein (ASYN) in areas relevant to PD (Rockenstein et al., 2002; Chesselet et al., 2012; Games et al., 2013), neurodegeneration including dopaminergic neurodegeneration, reduced dopamine (DA) and TH loss in the striatum (Masliah et al., 2000; Lam et al., 2011), and motor deficits (Fleming et al., 2004). […]
(§1) Alpha-synuclein (ASYN) is a neuronal protein whose dysregulation has been implicated in the pathogenesis of PD. The effects of Compound 1 on alpha-synuclein aggregation were assessed in both L61 ASYN transgenic and non-transgenic mice in a 1 month administration study. […] At the end of one month, the mice were sacrificed, and immunohistochemical (IHC) detection of total alpha-synuclein deposits, insoluble alpha-synuclein deposits (PK+resistant), microtubule-associated protein 1A/1B-light chain 3 (LC3), and monomeric alpha-synuclein levels were assessed in the harvested brain tissues.

[2] = biological target: T1, human transporter MATE2-K (Homo sapiens, UniProt Q86VL8); experiment: In vitro ion transport assay 1, MATE2-K; format: cell-based; details: probe substrate 10 μM [14C]-metformin
T1 construct: expressed in transfected cells; host or cells: MDCK-II
Experimental: Compound 1 was studied in the concentration range of 0.1-100 μM for its potency against transport mediated by various transporter proteins. [table]

[3] = system: dopaminergic (DAT) transporter; experiment: DAT immunolabeling in striatum, L61 ASYN transgenic mice; format: in vivo; details: 3 months
Experimental: The harvested brain tissues were drop fixed using 4% PFA and sectioned on a vibratome, and representative sections corresponding to the striatum and cerebellum were assessed for DAT with IHC staining.
Immunolabeling studies of DAT were conducted using a monoclonal antibody (1:500; MAB369; Millipore, Temecula, Calif.) and a biotinylated secondary antibody (1:100; BA4000, Vector Labs) and analysis was performed on blindcoded sections from Line 61 transgenic and non-transgenic mice. Slides were digitized using a high resolution automated Nanozoomer slide scanner (Hamamatsu Corp.). Digitized images were analyzed using Halo (Indica Labs) image analysis software package by placing an ROI frame within the dorsal striatum and another within a separate reference brain region (for normalization of DAT signal). A thresholding algorithm was defined and then applied equally to all images to determine the average optical density of DAT immunolabeling across each ROI The results of the analysis were then exported for graphing and statistical analysis and the striatal DAT:cortical (reference region) DAT optical densities ratio was calculated for each subject.
Quantification of DAT density was carried out by calculating the immunofluorescence in striatal sections against that in cerebellum sections to derive a striatal-to-reference ratio.

[4] = biological target: T2, human transporter OAT1 (Homo sapiens, UniProt Q4U2R8); experiment: In vitro ion transport assay 1, OAT1-mediated uptake in MDCK-II cells; format: cell-based; details: probe substrate 2 μM [3H]-p-aminohippurate
T2 construct: expressed in transfected cells; host or cells: MDCK-II
T2 sequence (Q4U2R8 1-563): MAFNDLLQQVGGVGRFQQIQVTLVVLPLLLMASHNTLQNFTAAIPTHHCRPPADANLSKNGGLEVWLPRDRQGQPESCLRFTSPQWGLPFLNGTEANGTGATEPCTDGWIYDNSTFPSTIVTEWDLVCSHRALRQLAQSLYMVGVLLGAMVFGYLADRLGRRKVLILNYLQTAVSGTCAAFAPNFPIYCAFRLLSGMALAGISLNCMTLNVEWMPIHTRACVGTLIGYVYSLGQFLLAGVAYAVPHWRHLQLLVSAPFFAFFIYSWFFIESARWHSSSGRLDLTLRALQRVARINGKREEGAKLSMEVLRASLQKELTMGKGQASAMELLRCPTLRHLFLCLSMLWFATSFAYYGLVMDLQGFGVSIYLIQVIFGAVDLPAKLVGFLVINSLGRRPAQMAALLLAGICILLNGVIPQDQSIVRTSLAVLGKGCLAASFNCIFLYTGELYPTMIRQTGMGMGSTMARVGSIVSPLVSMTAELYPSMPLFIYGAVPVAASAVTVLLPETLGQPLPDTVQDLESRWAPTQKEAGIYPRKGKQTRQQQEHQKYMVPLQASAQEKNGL
Experimental: To determine the effect of the ion transporter inhibitors on the uptake activity of solute carrier (SLC) ion transporter proteins such as OAT1 and OAT3, an ion transport assay utilizing a polarized monolayer of MDCK-II cells grown on permeable supports was used. The MDCK-II cells were treated to express the transporter of interest (e.g., OAT3 or OAT 1) or were treated with a control vector. 96-well culture plates with both donor and receiver cells containing a monolayer of MDCK-II cells were maintained at 37° C. in 5% CO2 atmosphere. Radio-labeled para-aminohippurate ([3H]-PAH) was used as a substrate for measuring OAT1 and OAT3 mediated transport, where the transport of the substrate was determined by radiometric detection. OAT1-mediated transport was assayed using 2 μM of [3H]-PAH; OAT3-mediated transport was assayed using 10 μM of [3H]-PAH. The probe substrate for OAT1 was 2 μM [3H]-p-aminohippurate. The probe substrate for OAT3 was 10 μM [3H]p-aminohippurate. The reference inhibitor for both assays was 100 μM probenecid. Following pre incubation of the transfected MDCK-II cells in HBSS, [3H]-PAH was added at the concentrations described above. Wells were then treated with either reference inhibitor probeneic acid or with the test compound. Cells transfected with empty vector served as an additional control. […]

[5] = system: PK-resistant alpha-synuclein; experiment: PK-resistant (insoluble) alpha-synuclein IHC, L61 ASYN transgenic mice, 1 month study; format: in vivo; details: for reduction of PK-resistant alpha synuclein levels in cortex compared to vehicle-treated mice: L61 ASYN transgenic mice
Experimental: Multiple in vivo administration studies of Compound 1 were carried out in the Line 61 (L61) mThy1-alpha-synuclein transgenic mouse model of Parkinson's disease (PD). The mThy1-alpha-synuclein transgenic mouse model overexpresses wild-type human ASYN under the Thy-1 promoter (commonly referred to as Line 61 transgenic mice; Rockenstein et al., 2002). This transgenic mouse develops extensive accumulation of alpha-synuclein (ASYN) in areas relevant to PD (Rockenstein et al., 2002; Chesselet et al., 2012; Games et al., 2013), neurodegeneration including dopaminergic neurodegeneration, reduced dopamine (DA) and TH loss in the striatum (Masliah et al., 2000; Lam et al., 2011), and motor deficits (Fleming et al., 2004). Male transgenic and non-transgenic littermates (3-3.5 mo) were used for all in vivo studies presented here.
as §1, with “study. L61 ASYN transgenic mice (36 total mice, n=8-11 mice per treatment group) were injected (i.p.) daily with 1, 5, or 10 mg/kg of Compound 1 or a vehicle control (5% DMSO+20% Cremphor EL+0.9% normal saline) for 1 month.” for “study.”
The quantification and IHC staining of PK-resistant alpha-synuclein were performed using known techniques (Rockenstein et al., J Neurosci Res. 2002, 68(5):568-78; Tanji et al., Acta Neuropathol. 2010, 120, 145-154; Nuber et al., Brain. 2013 February; 136(Pt 2):412-32).

T1 sequence (Q86VL8 1-566 isoform Q86VL8-3): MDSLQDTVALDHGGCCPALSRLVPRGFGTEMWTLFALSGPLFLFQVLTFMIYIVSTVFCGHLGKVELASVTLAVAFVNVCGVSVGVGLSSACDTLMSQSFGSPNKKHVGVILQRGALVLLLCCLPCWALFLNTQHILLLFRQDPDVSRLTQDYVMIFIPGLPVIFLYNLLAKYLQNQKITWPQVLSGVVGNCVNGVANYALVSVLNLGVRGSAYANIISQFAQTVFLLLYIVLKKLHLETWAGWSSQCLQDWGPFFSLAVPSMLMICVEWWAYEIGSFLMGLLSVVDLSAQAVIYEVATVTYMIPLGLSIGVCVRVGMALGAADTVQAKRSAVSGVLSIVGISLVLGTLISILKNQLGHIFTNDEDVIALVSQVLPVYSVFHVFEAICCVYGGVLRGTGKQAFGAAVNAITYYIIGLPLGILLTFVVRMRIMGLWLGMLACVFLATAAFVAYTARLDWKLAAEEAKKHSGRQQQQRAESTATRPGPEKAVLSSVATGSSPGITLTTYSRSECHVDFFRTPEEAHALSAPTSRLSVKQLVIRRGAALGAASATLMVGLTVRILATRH

O=S(=O)(c1ccc(-n2cn[nH]c2=S)cc1)c1ccc(Cl)c(C(F)(F)F)c1 [Compound 1, 4-(4-((4-chloro-3-(trifluoromethyl)phenyl)sulfonyl)phenyl)-2,4-dihydro-3H-1,2,4-triazole-3-thione]
levels of LC3 immunolabeling in cortex and striatum [1]: increased
IC50 [2]: 75.8 µM
striatal levels of DAT, staining intensity in representative images vs vehicle-treated L61 mice ([3]; 5 mg/kg or 10 mg/kg daily): restoring striatal levels of DAT
DAT striatal-to-reference ratio, quantification (FIG. 24) ([3]; 10 mg/kg daily): reduces the GFAP levels in a statistically significant manner
IC50 [4]: 12.9 µM
reduction of PK-resistant alpha synuclein levels in cortex compared to vehicle-treated mice ([5]; 5 mg/kg daily i.p.): 37%
reduction of PK-resistant alpha synuclein levels in cortex compared to vehicle-treated mice ([5]; 10 mg/kg daily i.p.): 36%
insoluble alpha-synuclein deposits (PK+resistant) in cortex, hippocampus and striatum ([5]; 1, 5 or 10 mg/kg per day i.p., statistically significant): reduced the insoluble alpha-synuclein deposits
